# From US20070197590A1, “SUBSTITUTED DIPIPERIDINE CCR2 ANTAGONISTS” (priority 2006, published 2007)
# Target: T1, CCR2 (Homo sapiens, UniProt P41597)
# T1 construct: host or cells: THP-1 cells
# T1 sequence (P41597 1-360 isoform P41597-2): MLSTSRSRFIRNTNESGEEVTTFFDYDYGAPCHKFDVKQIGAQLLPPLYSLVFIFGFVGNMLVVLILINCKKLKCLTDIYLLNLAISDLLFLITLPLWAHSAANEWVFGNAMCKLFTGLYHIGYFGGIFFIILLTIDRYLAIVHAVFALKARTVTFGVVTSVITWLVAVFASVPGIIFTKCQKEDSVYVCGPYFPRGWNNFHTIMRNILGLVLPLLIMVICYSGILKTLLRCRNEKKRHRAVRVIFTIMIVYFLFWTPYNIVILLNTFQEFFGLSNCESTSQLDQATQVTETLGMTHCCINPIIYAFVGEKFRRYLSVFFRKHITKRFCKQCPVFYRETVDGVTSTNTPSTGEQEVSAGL
# Assay: MCP-1 Receptor Binding Assay in THP-1 Cells
# Conditions: THP-1 cells, 0.5 nM 125I labeled MCP-1, 2 hours at 30° C.; read-out: Inhibition of MCP-1 Binding IC50
# Procedure: THP-1 cells were obtained from American Type Culture Collection (Manassas, Va., USA). The THP-1 cells were grown in RPMI-1640 supplemented with 10% fetal bovine serum in a humidified 5% CO2 atmosphere at 37° C. The cell density was maintained […].
# THP-1 cells were incubated with 0.5 nM ^125, labeled MCP-1 (Perkin-Elmer Life Sciences, Inc. Boston, Mass.) in the presence of varying concentrations of either unlabeled MCP-1 (R & D Systems, Minneapolis, Minn.) or test compound for 2 hours at 30° C. in a 96 well plate. Cells were then harvested onto a filter plate, dried, and 20 μL of Microscint 20 was added to each well. Plates were counted in a TopCount NXT, Microplate Scintillation & Luminescence Counter (Perkin-Elmer Life Sciences, Inc. Boston, Mass.). Blank values (buffer only) were subtracted from all values and drug treated values were compared to vehicle treated values. 1 μM cold MCP-1 was used for nonspecific binding.
# Table 1 lists IC50 values for inhibition of MCP-1 binding to CCR2 obtained for test compounds of the invention.
row,IC50,Compound
1,4400 nM,"O=C(C(=O)N1CCC(c2ccc(Cl)cc2)CC1)C1CCN(C(=O)C=Cc2ccc(Cl)c(Cl)c2)CC1 [Compound 2, 1-[4-(4-chloro-phenyl)-piperidin-1-yl]-2-{1-[3-(3,4-dichloro-phenyl)-acryloyl]-piperidin-4-yl}-ethane-1,2-dione]"
2,3400 nM,O=C(/C=C/c1ccc(Cl)c(Cl)c1)N1CCC(C(O)C(=O)N2CCC(c3ccc(Cl)cc3)CC2)CC1 (stereo not drawn) [Compound 3]
3,6400 nM,"O=C(c1cc(F)c(F)c(F)c1)N1CCC(C(O)CN2CCC(c3c[nH]c4ccccc34)CC2)CC1 (stereo not drawn) [Compound 8, (4-{1-hydroxy-2-[4-(1H-indol-3-yl)-piperidin-1-yl]-ethyl}-piperidin-1-yl)-(3,4,5-trifluoro-phenyl)-methanone]"
4,9400 nM,"O=C(CN1CCC(c2c[nH]c3ncccc23)CC1)C1CCN(C(=O)/C=C/c2cc(F)c(F)c(F)c2)CC1 [Compound 17, 1-(4-{2-[4-(1H-pyrrolo[2,3-b]pyridin-3-yl)-piperidin-1-yl]-acetyl}-piperidin-1-yl)-3-(3,4,5-trifluoro-phenyl)-propenone]"
5,1400 nM,Cc1cccc(/C=C/C(=O)N2CCC(C(O)CN3CCC(c4cc[nH]n4)CC3)CC2)c1 (stereo not drawn) [Compound 33]
6,1200 nM,O=C(/C=C/c1cc(F)c(F)c(F)c1)N1CCC(C(O)CN2CCC(c3cc[nH]n3)CC2)CC1 (stereo not drawn) [Compound 35]
7,1100 nM,"O=C(Nc1ccc(Cl)c(Cl)c1)N1CCC(C(O)CN2CCC(c3cc[nH]n3)CC2)CC1 (stereo not drawn) [Compound 36, 4-{1-hydroxy-2-[4-(1H-pyrazol-3-yl)-piperidin-1-yl]-ethyl}-piperidine-1-carboxylic acid (3,4-dichloro-phenyl)-amide]"
8,8600 nM,"O=C(Nc1ccc(F)c(F)c1)N1CCC(C(O)CN2CCC(c3cc[nH]n3)CC2)CC1 (stereo not drawn) [Compound 37, 4-{1-hydroxy-2-[4-(1H-pyrazol-3-yl)-piperidin-1-yl]-ethyl}-piperidine-1-carboxylic acid (3,4-difluoro-phenyl)-amide]"
9,4700 nM,"CCOC(=O)C(CN1CCC(c2ccc(OC)cc2)CC1)C1CCN(C(=O)C=Cc2cc(F)c(F)c(F)c2)CC1 (stereo not drawn) [Compound 38, 3-[4-(4-methoxy-phenyl)-piperidin-1-yl]-2-{1-[3-(3,4,5-trifluoro-phenyl)-acryloyl]-piperidin-4-yl}-propionic acid ethyl ester]"
10,2100 nM,O=C(/C=C/c1cc(F)cc(F)c1)N1CCC(C(O)CN2CCC(c3nc4ccccc4o3)CC2)CC1 (stereo not drawn) [Compound 46]
11,3900 nM,Cc1cccc(/C=C/C(=O)N2CCC(C(O)CN3CCC(c4nc5ccccc5o4)CC3)CC2)c1 (stereo not drawn) [Compound 47]
12,5600 nM,O=C(/C=C/c1cc(F)cc(F)c1)N1CCC(CC(CO)N2CCC(c3c[nH]c4ccccc34)CC2)CC1 (stereo not drawn) [Compound 54]
13,3500 nM,O=C(/C=C/c1cc(F)c(F)c(F)c1)N1CCC(CC(CO)N2CCC(c3c[nH]c4ccccc34)CC2)CC1 (stereo not drawn) [Compound 55]
14,5700 nM,O=C(/C=C/c1ccc(Cl)c(Cl)c1)N1CCC(CC(CO)N2CCC(c3c[nH]c4ccccc34)CC2)CC1 (stereo not drawn) [Compound 56]
15,2600 nM,Cc1cccc(/C=C/C(=O)N2CCC(CC(CO)N3CCC(c4c[nH]c5ccccc45)CC3)CC2)c1 (stereo not drawn) [Compound 57]
16,6100 nM,"OCC(CC1CCN(C(=S)Nc2cccc(Br)c2)CC1)N1CCC(c2c[nH]c3ccccc23)CC1 (stereo not drawn) [Compound 59, 4-{3-hydroxy-2-[4-(1H-indol-3-yl)-piperidin-1-yl]-propyl}-piperidine-1-carbothioic acid (3-bromo-phenyl)-amide]"
17,1300 nM,"COc1ccc(C2CCN(CC(=O)C3CCN(C(=O)/C=C/c4cc(F)c(F)c(F)c4)CC3)CC2)cc1 [Compound 64, 1-(4-{2-[4-(4-methoxy-phenyl)-piperidin-1-yl]-acetyl}-piperidin-1-yl)-3-(3,4,5-trifluoro-phenyl)-propenone]"
18,2700 nM,"COc1ccc(C2CCN(CC(NC(=O)N(C)C)C3CCN(C(=O)C=Cc4cc(F)c(F)c(F)c4)CC3)CC2)cc1 (stereo not drawn) [Compound 68, 3-(2-[4-(4-methoxy-phenyl)-piperidin-1-yl]-1-{1-[3-(3,4,5-trifluoro-phenyl)-acryloyl]-piperidin-4-yl}-ethyl)-1,1-dimethyl-urea]"
19,950 nM,"O=C(OCc1ccccc1)N1CCC(O)(C(O)CN2CCC(c3c[nH]c4ccccc34)CC2)CC1 (stereo not drawn) [Compound 69, 4-hydroxy-4-{1-hydroxy-2-[4-(1H-indol-3-yl)-piperidin-1-yl]-ethyl}-piperidine-1-carboxylic acid benzyl ester]"
20,700 nM,O=C(/C=C/c1cc(C(F)(F)F)cc(C(F)(F)F)c1)N1CCC(O)(C(O)CN2CCC(c3c[nH]c4ccccc34)CC2)CC1 (stereo not drawn) [Compound 72]
21,860 nM,"OC(CN1CCC(c2c[nH]c3ccccc23)CC1)C1(O)CCN(C(=S)Nc2cc(Cl)cc(Cl)c2)CC1 (stereo not drawn) [Compound 83, 4-hydroxy-4-{1-hydroxy-2-[4-(1H-indol-3-yl)-piperidin-1-yl]-ethyl}-piperidine-1-carbothioic acid (3,5-dichloro-phenyl)-amide]"
22,810 nM,"COc1ccc(C2CCN(CC(O)C3CCN(C(=O)Nc4cc(F)cc(C(F)(F)F)c4)CC3)CC2)cc1 (stereo not drawn) [Compound 91, 4-{1-hydroxy-2-[4-(4-methoxy-phenyl)-piperidin-1-yl]-ethyl}-piperidine-1-carboxylic acid (3-fluoro-5-trifluoromethyl-phenyl)-amide]"
23,480 nM,COc1ccc(C2CCN(CC(O)C3(O)CCN(C(=O)/C=C/c4ccc(Cl)cc4)CC3)CC2)cc1 (stereo not drawn) [Compound 92]

# Same assay, conditions: test concentration of 25 μM; given where an IC50 value was not obtained; read-out: Inhibition of MCP-1 Binding, percent inhibition
row,inhibition at 25 µM,Compound
1,52%,"COc1ccc(C2CCN(CC(C(=O)O)C3CCN(C(=O)C=Cc4cc(F)c(F)c(F)c4)CC3)CC2)cc1 (stereo not drawn) [Compound 39, 3-[4-(4-methoxy-phenyl)-piperidin-1-yl]-2-{1-[3-(3,4,5-trifluoro-phenyl)-acryloyl]-piperidin-4-yl}-propionic acid]"
2,48%,"CCOC(=O)C(CC1CCN(C(=O)C=Cc2cccc(C)c2)CC1)N1CCC(c2c[nH]c3ccccc23)CC1 (stereo not drawn) [Compound 48, 2-[4-(1H-indol-3-yl)-piperidin-1-yl]-3-[1-(3-m-tolyl-acryloyl)-piperidin-4-yl]-propionic acid ethyl ester]"
3,40%,"CCOC(=O)C(CC1CCN(C(=O)C=Cc2ccc(Cl)c(Cl)c2)CC1)N1CCC(c2c[nH]c3ccccc23)CC1 (stereo not drawn) [Compound 49, 3-{1-[3-(3,4-dichloro-phenyl)-acryloyl]-piperidin-4-yl}-2-[4-(1H-indol-3-yl)-piperidin-1-yl]-propionic acid ethyl ester]"
4,44%,"CCOC(=O)C(CC1CCN(C(=O)C=Cc2cc(F)c(F)c(F)c2)CC1)N1CCC(c2c[nH]c3ccccc23)CC1 (stereo not drawn) [Compound 50, 2-[4-(1H-indol-3-yl)-piperidin-1-yl]-3-{1-[3-(3,4,5-trifluoro-phenyl)-acryloyl]-piperidin-4-yl}-propionic acid ethyl ester]"
5,48%,"CCOC(=O)C(CC1CCN(C(=O)C=Cc2cc(F)cc(F)c2)CC1)N1CCC(c2c[nH]c3ccccc23)CC1 (stereo not drawn) [Compound 51, 3-{1-[3-(3,5-difluoro-phenyl)-acryloyl]-piperidin-4-yl}-2-[4-(1H-indol-3-yl)-piperidin-1-yl]-propionic acid ethyl ester]"
6,53%,"CCOC(=O)C(CC1CCN(C(=O)Nc2ccc(Cl)c(Cl)c2)CC1)N1CCC(c2c[nH]c3ccccc23)CC1 (stereo not drawn) [Compound 52, 3-[1-(3,4-dichloro-phenylcarbamoyl)-piperidin-4-yl]-2-[4-(1H-indol-3-yl)-piperidin-1-yl]-propionic acid ethyl ester]"
7,48%,"Cc1cccc(C=CC(=O)N2CCC(CC(C(=O)O)N3CCC(c4c[nH]c5ccccc45)CC3)CC2)c1 (stereo not drawn) [Compound 53, 2-[4-(1H-indol-3-yl)-piperidin-1-yl]-3-[1-(3-m-tolyl-acryloyl)-piperidin-4-yl]-propionic acid]"
8,55%,"O=C(O)C(CC1CCN(C(=O)Nc2ccc(Cl)c(Cl)c2)CC1)N1CCC(c2c[nH]c3ccccc23)CC1 (stereo not drawn) [Compound 62, 3-[1-(3,4-dichloro-phenylcarbamoyl)-piperidin-4-yl]-2-[4-(1H-indol-3-yl)-piperidin-1-yl]-propionic acid]"
9,46%,"CC(C)(C)OC(=O)N1CCC(C(O)CN2CCC(c3c[nH]c4ccc(NS(C)(=O)=O)cc34)CC2)CC1 (stereo not drawn) [Compound 63, 4-{1-hydroxy-2-[4-(5-methanesulfonylamino-1H-indol-3-yl)-piperidin-1-yl]-ethyl}-piperidine-1-carboxylic acid tert-butyl ester]"
10,87%,"COc1ccc(C2CCN(CC(O)C3CCN(C(=O)Nc4cc(Cl)c(Cl)cc4F)CC3)CC2)cc1 (stereo not drawn) [Compound 90, 4-{1-hydroxy-2-[4-(4-methoxy-phenyl)-piperidin-1-yl]-ethyl}-piperidine-1-carboxylic acid (4,5-dichloro-2-fluoro-phenyl)-amide]"
